Tests used:
[1] = target: T1, 5HT2C receptors (Rattus norvegicus, UniProt P08909); experiment: Penile erection test; assay type: in vivo; settings: rats
T1 construct: from tissue; host or cells: whole animal (rat), in vivo
T1 sequence (P08909 33-460): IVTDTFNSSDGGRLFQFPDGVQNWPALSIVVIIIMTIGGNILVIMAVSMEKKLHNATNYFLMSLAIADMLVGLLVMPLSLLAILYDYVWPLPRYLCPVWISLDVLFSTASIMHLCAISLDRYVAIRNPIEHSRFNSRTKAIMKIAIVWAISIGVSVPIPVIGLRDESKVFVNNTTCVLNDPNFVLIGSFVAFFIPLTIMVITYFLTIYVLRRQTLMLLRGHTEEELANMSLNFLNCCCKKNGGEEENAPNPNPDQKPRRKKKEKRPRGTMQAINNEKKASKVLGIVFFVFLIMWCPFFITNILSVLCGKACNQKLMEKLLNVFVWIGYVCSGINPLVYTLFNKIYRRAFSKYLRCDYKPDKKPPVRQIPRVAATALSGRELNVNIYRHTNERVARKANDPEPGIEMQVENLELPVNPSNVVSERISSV
From the text: This test, carried out according to the protocol of Berendsen et al ["In volvement of 5-HT1C receptors in drug-induced penile erections in rats" - Psychopharmacology 101: 57-61(1990)] enables the potential in vivo activity at 5HT2C receptors to be assessed.

[2] = target: T2, human 5-HT2C (Homo sapiens, UniProt P28335); experiment: Binding test, displacement of [3H]-mesulergine, cloned human receptors expressed in 3T3 cells; settings: cloned human receptor in 3T3 cells; [3H]-mesulergine displacement; read-out: Binding pKi 5HT2C (converted)
T2 construct: expressed in transfected cells; host or cells: 3T3 cells
T2 sequence (P28335 33-458): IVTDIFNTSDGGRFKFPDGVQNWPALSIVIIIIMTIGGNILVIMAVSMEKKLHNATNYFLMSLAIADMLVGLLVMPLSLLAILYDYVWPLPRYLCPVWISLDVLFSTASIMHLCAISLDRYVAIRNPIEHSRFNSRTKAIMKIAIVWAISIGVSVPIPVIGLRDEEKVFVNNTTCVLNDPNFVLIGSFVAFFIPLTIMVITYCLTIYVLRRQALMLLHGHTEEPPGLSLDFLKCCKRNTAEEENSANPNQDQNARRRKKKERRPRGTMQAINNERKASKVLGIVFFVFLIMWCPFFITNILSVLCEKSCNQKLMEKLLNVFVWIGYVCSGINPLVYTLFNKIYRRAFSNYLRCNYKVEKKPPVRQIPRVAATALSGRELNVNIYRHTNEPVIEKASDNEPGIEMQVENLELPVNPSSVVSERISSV
Method: (§1) The tests are carried out using cloned human receptors expressed in 3T3 cells according to the protocols described in Stam et al "Genomic organization, coding sequence and functional expression of human 5-HT2 and 5-HT1A receptor genes" - European Journal of Pharmacology - Molecular Pharmacology Section 227: 153-162 (1993) and Stam et al "Genomic organisation and functional expression of the gene encoding the human serotonin 5-HT2C receptor" - European Journal of Pharmacology - Molecular Pharmacology Section 269: 339-348 (1994).

[3] = DRL-72 test; assay type: in vivo; settings: rats, operant performance
From the text: This test, carried out according to the protocol of Andrews et al ["Effects of imipramine and mirtazapine on operant performance in rats" - Drug Development Research 32: 58-66 (1994)], gives an indication of potential antidepressant-like activity.

[4] = target: T3, human 5-HT2A receptors (Homo sapiens, UniProt P28223); experiment: Binding test, displacement of [3H]-ketanserin, cloned human receptors expressed in 3T3 cells; settings: cloned human receptor in 3T3 cells; [3H]-ketanserin displacement; read-out: Binding pKi 5HT2A (converted)
T3 construct: expressed in transfected cells; host or cells: 3T3 cells
Method: as §1

T3 sequence (P28223 whole entry): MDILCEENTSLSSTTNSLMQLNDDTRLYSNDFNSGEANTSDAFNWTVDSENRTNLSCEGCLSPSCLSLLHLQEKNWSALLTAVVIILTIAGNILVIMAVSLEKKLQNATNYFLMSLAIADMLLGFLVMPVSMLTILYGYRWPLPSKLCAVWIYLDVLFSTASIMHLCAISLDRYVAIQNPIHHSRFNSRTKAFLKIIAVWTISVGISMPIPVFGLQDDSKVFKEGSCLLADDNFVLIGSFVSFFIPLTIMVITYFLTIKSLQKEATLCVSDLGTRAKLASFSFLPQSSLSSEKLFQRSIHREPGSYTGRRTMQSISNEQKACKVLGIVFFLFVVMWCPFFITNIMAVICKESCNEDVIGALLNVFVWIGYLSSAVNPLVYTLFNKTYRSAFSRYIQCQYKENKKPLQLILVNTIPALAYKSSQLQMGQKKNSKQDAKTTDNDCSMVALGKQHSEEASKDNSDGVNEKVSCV

Row | SMILES | Erection of the penis (MED, mg.kg-1) [1] [mg/kg] | Ki [2] [nM] | Increase in pellets earned in DRL-72 (MED, mg.kg-1) [3] [mg/kg] | Ki [4] [nM]
1 | COc1ccc2c(c1OC1CCNC1)CCC2.Cl (racemic) [Compound 10b, (rac)-3-[(2,3-Dihydro-5-methoxy-1H-inden-4-yl)oxy] pyrrolidine hydrochloride] | 1 | 25.1 | 10 | –
2 | COc1ccc2c(c1OC1CNC1)CCC2.Cl [Compound 5d, 3-[(2,3-Dihydro-5-methoxy-1H-inden-4-yl)oxy]-azetidine hydrochloride] | 1 | 31.6 | 10 | 398
3 | COc1ccc2c(c1O[C@H]1CCNC1)CCC2.Cl [Compound 9a, (S)-(+)-3-[(2,3-Dihydro-5-methoxy-1H-inden-4-yl)oxy]-pyrrolidine hydrochloride] | 0.46 | 10 | 3 | –

Source: patent EP0863136B1, “Derivatives of azetidine and pyrrolidine” (Akzo Nobel N.V., priority 1997, dated 1998)
